The structures appear in SMILES notation. In brackets after ≈: the same amount, converted by molar mass.

Format in all cases: cell-based
Assay [1] deals with Enterococcus faecium VRQR (vancomycin resistant, quinolone resistant). Put plainly: MIC, agar dilution method, Mueller-Hinton agar with 5% defibrinated horse blood. Particulars: 35° C., 5 % CO2, 24 hours. On the procedure: (§1) The following in vitro results were obtained based on an agar dilution method except for C. pneumoniae. The activity is presented as the minimum inhibitory concentration (MIC).
(§2) Streptococci and enterococci were tested on Mueller-Hinton agar supplemented with 5% defibrinated horse blood, using an approximate inoculum of 1×10^4 cfu/spot an incubation temperature of 35° C. in an atmosphere of 5 % CO2 for 24 hours. The MIC was defined as the lowest concentration at which no visible bacterial growth was observed.

Assay [2] deals with Streptococcus pneumoniae IID553. Described as above. Particulars: 35° C., 5 % CO2, 24 hours. On the procedure:
as §1, §2

In assay [3] the test system is Streptococcus pneumoniae PRQR (penicillin resistant, quinolone resistant). The assay is described as above. Particulars: 35° C., 5 % CO2, 24 hours. On the procedure:
as §1, §2

The subject of assay [4] is Streptococcus pyogenes IID692. The description is as above. Particulars: 35° C., 5 % CO2, 24 hours. On the procedure:
as §1, §2

Assay [5] deals with Staphylococcus aureus MR (methicillin resistant). Put plainly: MIC, agar dilution method, Mueller-Hinton agar. Particulars: 35° C., 24 hours. As for the experimental part:
as §1
(§3) S. aureus and M. catarrhalis were tested on Mueller-Hinton agar, using an approximate inoculum of 1×10^4 cfu/spot an incubation temperature of 35° C. for 24 hours. The MIC was defined as the lowest concentration at which no visible bacterial growth was observed.
(In general: Agar dilution tests growth on a series of plates holding different concentrations.)

The subject of assay [6] is Morcaxella catarrhalis ATCC25238. Put plainly: MIC, agar dilution method, Mueller-Hinton agar. Particulars: 35° C., 24 hours. As for the experimental part: as §1, §3
For assay [7], the system named is Staphylococcus aureus Smith. Put plainly: MIC, agar dilution method, Mueller-Hinton agar. Particulars: 35° C., 24 hours. On the procedure: as §1, §3
Assay [8] has as its system Staphylococcus aureus CR (chloramphenicol resistant). Briefly: MIC, agar dilution method, Mueller-Hinton agar. The conditions noted are these: 35° C., 24 hours. As for the experimental part:
as §1, §3

The MIC is the lowest concentration found to suppress growth. Read a high MIC as a need for much substance. Regarding `CC(=O)NC[C@H]1CN(c2ccc(-c3ccc([C@@]4(C#N)[C@@H]5CNC[C@@H]54)c(F)c3)c(F)c2)C(=O)O1.Cl` [Example 15, N-[5(S)-3-[4-[4-[(1α,5α,6β)-6-Cyano-3-azabicyclo[3.1.0]hexan-6-yl]-3-fluorophenyl]-3-fluorophenyl]-2-oxooxazolidin-5-ylmethyl]acetamide Hydrochloride], the MIC in assay [1] worked out at 0.5 µg/mL; in assay [2] it was 0.25 µg/mL; in assay [3], 0.25 µg/mL; in assay [4], 0.25 µg/mL; in assay [5] it was 0.25 µg/mL; in assay [6], 4 µg/mL. In addition, the MIC in assay [7] is 0.25 µg/mL; in assay [8], 1 µg/mL.
For the molecule `CC(=O)NC[C@H]1CN(c2ccc(-c3ccc([C@@]4(C#N)[C@@H]5CNC[C@@H]54)nc3)cc2)C(=O)O1.Cl` [Example 13, N-[5(S)-3-[4-[2-[(1α,5α,6β)-6-Cyano-3-azabicyclo[3.1.0]hexan-6-yl]pyridin-5-yl]phenyl]-2-oxooxazolidin-5-ylmethyl]acetamide Hydrochloride], the minimum inhibitory concentration (MIC) in assay [1] is 0.125 µg/mL; in assay [2], 0.125 µg/mL; in assay [3], 0.06 µg/mL; in assay [4], 0.06 µg/mL; in assay [5], 0.125 µg/mL; in assay [6], 1 µg/mL. The MIC in assay [7] was 0.125 µg/mL; in assay [8], 0.5 µg/mL.
Consider `CC(=O)NC[C@H]1CN(c2ccc(N3CCOCC3)c(F)c2)C(=O)O1` [Linezolid, reference compound], for which inhibition of growth in assay [6] (MIC) required 4 µg/mL (≈ 11.9 µM).
On to `N#C[C@]1(c2ccc(-c3ccc(N4C[C@H](Cn5ccnn5)OC4=O)cc3F)cn2)[C@@H]2COC[C@@H]21` [Example 23, 1-[5(R)-3-[4-[2-[(1α,5α,6β)-6-Cyano-3-oxabicyclo[3.1.0]hexan-6-yl]pyridin-5-yl]-3-fluorophenyl]-2-oxooxazolidin-5-ylmethyl]-1,2,3-triazole], for which the MIC worked out at 0.06 µg/mL (≈ 0.134 µM) in assay [1]; 0.06 µg/mL (≈ 0.134 µM) in assay [2]; 0.06 µg/mL (≈ 0.134 µM) in assay [3]; 0.06 µg/mL (≈ 0.134 µM) in assay [4]; 0.06 µg/mL (≈ 0.134 µM) in assay [5]; 0.5 µg/mL (≈ 1.12 µM) in assay [6]. Besides, the MIC in assay [7] came to 0.06 µg/mL (≈ 0.134 µM); in assay [8], 0.5 µg/mL (≈ 1.12 µM).

The values above are taken from patent US7582659B2, “Cyclopropyl group substituted oxazolidinone antibiotics and derivatives thereof” (Merck & Co., Inc., priority 2003, dated 2009).
